Test results reported in patent publication US10131675B2 (Genentech, Inc., priority 2015, dated 2018).
pKi: −log10 of the molar value.

Molecular target: DLK (Homo sapiens (Human), UniProt Q12852)
Assay: DLK TR-FRET Inhibition Assay
Format: biochemical
Conditions: N-terminally GST-tagged DLK (catalytic domain amino acid 1-520), MKK4 K131M substrate, 30 μM ATP; read-out: DLK HTRF Ki
Experimental: DLK kinase reactions (20 μL) containing 5 nM N-terminally GST-tagged DLK (catalytic domain amino acid 1-520) (Carna Bioscience), 40 nM N-terminally HIS tagged MKK4 K131M substrate, and 30 μM ATP in kinase reaction buffer (50 mM HEPES, pH 7.5, 0.01% Triton X-100, 0.01% Bovine γ-Globulins, 2 mM DTT, 10 mM MgCl2 and 1 mM EGTA), and testing compound 1:3 serial diluted starting at 20 uM were incubated at ambient temperature for 60 minutes in 384 well OptiPlate (Perkin Elmer). To quench kinase reactions and detect phosphorylated MKK4, 15 μL of TR-FRET antibody mixture containing 2 nM anti-phosphorylated MKK4 labeled with Europium cryptate (Cisbio) and 23 nM anti-HIS labeled with D2 (Cisbio) in detection buffer (25 mM Tris pH 7.5, 100 mM NaCl, 100 mM EDTA, 0.01% Tween-20, and 200 mM KF) was added to the reaction mixture. The detection mixture was incubated for 3 hours at ambient temperature and the TR-FRET was detected with an EnVision multilabel plate reader (Perkin-Elmer) using the LANCE/DELFIA Dual Enh label from Perkin-Elmer (excitation filter: UV2 (TRF) 320 and emission filters: APC 665 and Europium 615).

DLK, sequence (Q12852 1-520): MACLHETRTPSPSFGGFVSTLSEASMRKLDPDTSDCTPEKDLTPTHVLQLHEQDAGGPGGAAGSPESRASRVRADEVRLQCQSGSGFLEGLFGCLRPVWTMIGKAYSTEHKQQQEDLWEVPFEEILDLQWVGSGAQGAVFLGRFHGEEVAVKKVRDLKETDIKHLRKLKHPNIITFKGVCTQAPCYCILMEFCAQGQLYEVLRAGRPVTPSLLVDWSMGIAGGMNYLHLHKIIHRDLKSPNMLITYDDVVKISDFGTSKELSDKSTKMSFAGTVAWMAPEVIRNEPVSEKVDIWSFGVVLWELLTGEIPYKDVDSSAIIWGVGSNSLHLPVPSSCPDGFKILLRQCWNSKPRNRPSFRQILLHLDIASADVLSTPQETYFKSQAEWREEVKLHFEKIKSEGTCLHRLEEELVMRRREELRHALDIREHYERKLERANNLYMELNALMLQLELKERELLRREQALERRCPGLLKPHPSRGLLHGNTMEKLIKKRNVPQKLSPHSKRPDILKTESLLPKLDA

SMILES | pKi
CC1(C)OCCn2c1nc1c(N3C4CCC3CC4)nc(-c3cnc(N)nc3)nc12 [Example 56, 5-(4-(7-azabicyclo[2.2.1]heptan-7-yl)-6,6-dimethyl-8,9-dihydro-6H-[1,4]oxazino[4,3-e]purin-2-yl)pyrimidin-2-amine] | 6.47
CCN(c1nc(-c2cnc(N)nc2)nc2c1nc1n2CCOC1(C)C)C1CC1 [Example 61, 2-(2-aminopyrimidin-5-yl)-N-cyclopropyl-N-ethyl-6,6-dimethyl-8,9-dihydro-6H-[1,4]oxazino[4,3-e]purin-4-amine] | 6.60
CC(C)N(c1nc(-c2cnc(N)nc2)nc2c1nc1n2CCOC1(C)C)C1CC1 [Example 63, 2-(2-aminopyrimidin-5-yl)-N-cyclopropyl-N-isopropyl-6,6-dimethyl-8,9-dihydro-6H-[1,4]oxazino[4,3-e]purin-4-amine] | 6.25
CC(C)N(c1nc(-c2cnc(N)nc2)nc2c1nc1n2CCOC1(C)C)C1CCC1 [Example 64, 2-(2-aminopyrimidin-5-yl)-N-cyclobutyl-N-isopropyl-6,6-dimethyl-8,9-dihydro-6H-[1,4]oxazino[4,3-e]purin-4-amine] | 6.57
COc1cc(-c2nc(N3CC(F)(F)C3)c3nc4n(c3n2)CCOC4(C)C)cnc1N [Example 65, 5-(4-(3,3-difluoroazetidin-1-yl)-6,6-dimethyl-8,9-dihydro-6H-[1,4]oxazino[4,3-e]purin-2-yl)-3-methoxypyridin-2-amine] | 6.07
CC1(C)OCCn2c1nc1c(N3CC(F)(F)C3)nc(-c3cnc(N)nc3)nc12 [Example 68] | 6.32
CCOc1cc(-c2nc(N3CC(F)(F)C3)c3nc4n(c3n2)CCOC4(C)C)cnc1N [Example 69] | 6.54
CC1(C)OCCn2c1nc1c(N3CC(F)(F)C3)nc(-c3cnc(N)c(OCC4CC4)c3)nc12 [Example 70] | 6.38
COc1cc(-c2nc(N3CCC(F)(F)C3)c3nc4n(c3n2)CCOC4(C)C)cnc1N [Example 73, 5-(4-(3,3-difluoropyrrolidin-1-yl)-6,6-dimethyl-8,9-dihydro-6H-[1,4]oxazino[4,3-e]purin-2-yl)-3-methoxypyridin-2-amine] | 6.53
CC1(C)OCCn2c1nc1c(N3CCC(F)(F)C3)nc(-c3cnc(N)c(OCC4CC4)c3)nc12 [Example 77] | 6.23
CCOc1cc(-c2nc(N3CCC(F)(F)C3)c3nc4n(c3n2)CCOC4(C)C)cnc1N [Example 78] | 6.25
CC(C)Oc1cc(-c2nc(N3CCC(F)(F)C3)c3nc4n(c3n2)CCOC4(C)C)cnc1N [Example 79] | 6.57
CCC(C)Oc1cc(-c2nc(N3CCC(F)(F)C3)c3nc4n(c3n2)CCOC4(C)C)cnc1N (stereo not drawn) [Example 80] | 6.35
CC1(C)OCCn2c1nc1c(N3CCC(F)(F)C3)nc(-c3cnc(N)c(Cl)c3)nc12 [Example 81] | 6.57
CC1(C)OCCn2c1nc1c(N3CCC(F)(F)C3)nc(-c3cnc(N)c(F)c3)nc12 [Example 82] | 6.55
CC1(C)OCCn2c1nc1c(N3CCC(F)(F)C3)nc(-c3cnc4ccnn4c3)nc12 [Example 83] | 6.30
CC1(C)OCCn2c1nc1c(OC3CCCC3)nc(-c3cnc(N)nc3)nc12 [Example 84, 5-(4-(cyclopentyloxy)-6,6-dimethyl-8,9-dihydro-6H-[1,4]oxazino[4,3-e]purin-2-yl)pyrimidin-2-amine] | 6.45
CC(C)Oc1nc(-c2cnc(N)nc2)nc2c1nc1n2CCOC1(C)C [Example 85] | 6.24
CC1(C)OCCn2c1nc1c(OCC3CC3)nc(-c3cnc(N)nc3)nc12 [Example 86] | 6.20
CC1(C)OCCn2c1nc1c(OC3CCC3)nc(-c3cnc(N)nc3)nc12 [Example 88] | 6.48
CC1(C)OCCn2c1nc1c(OC3CC4CC4C3)nc(-c3cnc(N)nc3)nc12 (stereo not drawn) [Example 89] | 6.26
CC1(C)OCCn2c1nc1c(N3CC4CC3C4)nc(-c3cncc(C(F)(F)F)c3)nc12 [Example 92, 4-(2-azabicyclo[2.1.1]hexan-2-yl)-6,6-dimethyl-2-(5-(trifluoromethyl)pyridin-3-yl)-8,9-dihydro-6H-[1,4]oxazino[4,3-e]purine] | 6.32
CC1(c2nc(-c3cnc(N)nc3)nc3c2nc2n3CCOC2(C)C)CC1 [Example 95, 5-(6,6-dimethyl-4-(1-methylcyclopropyl)-8,9-dihydro-6H-[1,4]oxazino[4,3-e]purin-2-yl)pyrimidin-2-amine] | 6.32
CC1(C)OCCn2c1nc1c(C3(C#N)CCC3)nc(-c3cnc(N)nc3)nc12 [Example 103, 1-(2-(2-aminopyrimidin-5-yl)-6,6-dimethyl-8,9-dihydro-6H-[1,4]oxazino[4,3-e]purin-4-yl)cyclobutanecarbonitrile] | 6.00
CC1(C)OCCn2c1nc1c(C3CCC3)nc(-c3cnc(N)nc3)nc12 [Example 104, 5-(4-cyclobutyl-6,6-dimethyl-8,9-dihydro-6H-[1,4]oxazino[4,3-e]purin-2-yl)pyrimidin-2-amine] | 6.53
CC1(C)OCCn2c1nc1c(N3CC(O)C3)nc(-c3cnc4[nH]cnc4c3)nc12 [Example 109, 1-(2-(3H-imidazo[4,5-b]pyridin-6-yl)-6,6-dimethyl-8,9-dihydro-6H-[1,4]oxazino[4,3-e]purin-4-yl)azetidin-3-ol] | 6.42
COC1CN(c2nc(-c3cnc4[nH]cnc4c3)nc3c2nc2n3CCOC2(C)C)C1 [Example 111, 2-(3H-imidazo[4,5-b]pyridin-6-yl)-4-(3-methoxyazetidin-1-yl)-6,6-dimethyl-8,9-dihydro-6H-[1,4]oxazino[4,3-e]purine] | 6.05
CC1(C)OCCn2c1nc1c(N3CC(C#N)C3)nc(-c3cnc4[nH]cnc4c3)nc12 [Example 112, 1-(2-(3H-imidazo[4,5-b]pyridin-6-yl)-6,6-dimethyl-8,9-dihydro-6H-[1,4]oxazino[4,3-e]purin-4-yl)azetidine-3-carbonitrile] | 6.34
Cn1cc(-c2nc(-c3cnc(N)nc3)nc3c2nc2n3CCOC2(C)C)cn1 [Example 113, 5-(6,6-dimethyl-4-(1-methyl-1H-pyrazol-4-yl)-8,9-dihydro-6H-[1,4]oxazino[4,3-e]purin-2-yl)pyrimidin-2-amine] | 6.28

The next compounds have a higher pKi than those just listed; values first:

pKi | SMILES
6.70 | COc1cc(-c2nc(N3CC4CC3C4)c3nc4n(c3n2)CCOC4(C)C)cnc1N [Example 57]
7.06 | CN(c1nc(-c2cnc(N)nc2)nc2c1nc1n2CCOC1(C)C)C1CCC1 [Example 58, 2-(2-aminopyrimidin-5-yl)-N-cyclobutyl-N,6,6-trimethyl-8,9-dihydro-6H-[1,4]oxazino[4,3-e]purin-4-amine]
6.72 | CC1(C)OCCn2c1nc1c(NC3CC3)nc(-c3cnc(N)nc3)nc12 [Example 59, 2-(2-aminopyrimidin-5-yl)-N-cyclopropyl-6,6-dimethyl-8,9-dihydro-6H-[1,4]oxazino[4,3-e]purin-4-amine]
6.68 | CN(c1nc(-c2cnc(N)nc2)nc2c1nc1n2CCOC1(C)C)C1CC1 [Example 60, 2-(2-aminopyrimidin-5-yl)-N-cyclopropyl-N,6,6-trimethyl-8,9-dihydro-6H-[1,4]oxazino[4,3-e]purin-4-amine]
7.06 | CCN(c1nc(-c2cnc(N)nc2)nc2c1nc1n2CCOC1(C)C)C1CCC1 [Example 62, 2-(2-aminopyrimidin-5-yl)-N-cyclobutyl-N-ethyl-6,6-dimethyl-8,9-dihydro-6H-[1,4]oxazino[4,3-e]purin-4-amine]
7.92 | Cc1c[nH]c2ncc(-c3nc(N4CC(F)(F)C4)c4nc5n(c4n3)CCOC5(C)C)cc12 [Example 66]
7.49 | CC(C)c1c[nH]c2ncc(-c3nc(N4CC(F)(F)C4)c4nc5n(c4n3)CCOC5(C)C)cc12 [Example 67]
6.98 | CC(C)Oc1cc(-c2nc(N3CC(F)(F)C3)c3nc4n(c3n2)CCOC4(C)C)cnc1N [Example 71]
6.64 | CCC(C)Oc1cc(-c2nc(N3CC(F)(F)C3)c3nc4n(c3n2)CCOC4(C)C)cnc1N (stereo not drawn) [Example 72]
7.59 | Cc1c[nH]c2ncc(-c3nc(N4CCC(F)(F)C4)c4nc5n(c4n3)CCOC5(C)C)cc12 [Example 74]
6.95 | CC(C)c1c[nH]c2ncc(-c3nc(N4CCC(F)(F)C4)c4nc5n(c4n3)CCOC5(C)C)cc12 [Example 75]
7.01 | CC1(C)OCCn2c1nc1c(N3CCC(F)(F)C3)nc(-c3cnc(N)nc3)nc12 [Example 76]
7.85 | COc1nc(-c2cnc3[nH]cc(C(F)(F)F)c3c2)nc2c1nc1n2CCOC1(C)C [Example 87]
8.22 | CC1(C)OCCn2c1nc1c(N3CC4CC3C4)nc(-c3cnc(N)c(C(F)(F)F)c3)nc12 [Example 90, 5-(4-(2-azabicyclo[2.1.1]hexan-2-yl)-6,6-dimethyl-8,9-dihydro-6H-[1,4]oxazino[4,3-e]purin-2-yl)-3-(trifluoromethyl)pyridin-2-amine]
6.65 | CC1(C(F)(F)F)OCCn2c1nc1c(N3CC4CC3C4)nc(-c3cnc(N)nc3)nc12 (stereo not drawn) [Example 100, 5-(4-(2-azabicyclo[2.1.1]hexan-2-yl)-6-methyl-6-(trifluoromethyl)-8,9-dihydro-6H-[1,4]oxazino[4,3-e]purin-2-yl)pyrimidin-2-amine]
8.90 | CC1(C)OCCn2c1nc1c(N3CC(C#N)C3)nc(-c3cnc4[nH]cc(Cl)c4c3)nc12 [Example 110, 1-(2-(3-chloro-1H-pyrrolo[2,3-b]pyridin-5-yl)-6,6-dimethyl-8,9-dihydro-6H-[1,4]oxazino[4,3-e]purin-4-yl)azetidine-3-carbonitrile]
